Patent US20210196720A1 (UROVANT SCIENCES GMBH, priority 2018, published 2021)
Values joined by “and” are separate entries in the source; they are usually repeats but may differ in a detail not shown here. Identical values can stand only once.

Columns and labels:
[1] = Dose-Cmax and dose-AUC models / simulations for 75 mg; set-up: species or system human
Description: In order to contextualize PK parameters of a 75 mg dose, dose-Cmax and dose-AUC models were created using data from Phase 1 studies.

[2] = Drug interaction: effect of conmed on vibegron PK; format: in vivo, human; settings: for half-life / AUC / Cmax: human, oral; for half-life: read-out: GM t1/2 (converted); for AUC / Cmax: plasma
Description: However, these interactions are not expected to be clinically significant.

[3] = Phase 2b OAB study, adverse events
Description: A placebo group was included in the main study, and a group that received tolterodine monotherapy was included in the main study and in the extension.

[4] = Effect of food on oral absorption; format: in vivo, human; settings: for Cmax / Tmax / AUC(0-t) / AUC(0-inf): human, plasma, oral; for AUC(0-t): read-out: AUC0-24
β1-AR = target: T1, β1-AR (Homo sapiens, UniProt P08588); experiment: Competition binding assay, recombinant β1-AR
T1 construct: expressed in transfected cells; membranes prepared from them

[5] = in vivo
[6] = Multiple rising dose Phase 1 PK, healthy subjects, day 14 (young males unless stated); format: in vivo, human; settings: for AUC(0-t): read-out: AUC0-24
Description: The steady state AUC geometric mean accumulation ratios were ˜2 in young male subjects and ˜2.8 in elderly subjects (male and female).
Although exposures were similar in middle-aged males when compared to young males, plasma concentrations were higher in elderly compared to middle-aged and young subjects. […] Furthermore, the steady state AUC geometric mean accumulation ratios were ˜2 in young males and ˜2.8 in the elderly.

[7] = 75 mg, log-log regression of multiple-dose exposures
[8] = 100 mg QD + tolterodine ER 4 mg QD
[9] = 100 mg single + diltiazem ER 240 mg QD
[10] = 100 mg single + ketoconazole 200 mg every 12 hours
[11] = 100 mg, 100 mg QD alone (tolterodine study)
[12] = 100 mg, 100 mg single, alone (diltiazem study)
[13] = 100 mg, 100 mg single, alone (ketoconazole study)
[14] = 150 mg QD + tolterodine ER 4 mg QD
[15] = 150 mg, 150 mg QD alone (tolterodine study)
[16] = with multiple doses of diltiazem
[17] = 50 mg, high-fat meal, non-Japanese young males
[18] = 50 mg, standard Japanese breakfast, Japanese young males
[19] = 150 mg multiple dose, middle-aged and elderly females, Day 1
[20] = female, 150 mg, 150 mg multiple dose day 14, middle-aged females, fed
[21] = male, 50 mg, single 50 mg, Japanese young males, fed
[22] = male, 50 mg, single 50 mg, non-Japanese young males, fed

T1 sequence (P08588 whole entry): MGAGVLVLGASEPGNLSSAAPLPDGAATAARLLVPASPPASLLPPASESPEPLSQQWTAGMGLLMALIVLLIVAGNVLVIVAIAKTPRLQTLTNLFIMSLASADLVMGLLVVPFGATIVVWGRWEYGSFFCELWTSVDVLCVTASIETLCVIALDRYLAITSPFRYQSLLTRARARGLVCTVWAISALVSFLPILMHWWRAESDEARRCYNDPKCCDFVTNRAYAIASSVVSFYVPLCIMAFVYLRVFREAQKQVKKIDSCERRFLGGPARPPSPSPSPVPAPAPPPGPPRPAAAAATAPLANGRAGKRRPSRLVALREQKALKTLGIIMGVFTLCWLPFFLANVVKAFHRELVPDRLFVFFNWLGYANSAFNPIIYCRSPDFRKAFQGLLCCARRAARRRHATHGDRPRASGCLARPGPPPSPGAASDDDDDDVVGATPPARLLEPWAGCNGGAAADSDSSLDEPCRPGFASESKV

For O=C(Nc1ccc(C[C@@H]2CC[C@H]([C@H](O)c3ccccc3)N2)cc1)[C@@H]1CCc2nccc(=O)n21 [Vibegron, (6S)-N-[4-[[(2S,5R)-5-[(R)-hydroxy(phenyl)methyl]pyrrolidin-2-yl]methyl]phenyl]-4-oxo-7,8-dihydro-6H-pyrrolo[1,2-a]pyrimidine-6-carboxamide], the “AUC of 75 mg lower than 200 mg single dose” value [1] was about 2 fold, the “AUC of 75 mg lower than 400 mg single dose” value [1] was about 6 fold and the “Cmax of 75 mg lower than 200 mg single dose” value [1] was “approximately 3.3 fold”. For the same molecule, the “Cmax of 75 mg lower than 400 mg single dose” value [1] was about 9.2 fold, the “reduction in Cmax” value ([1]; 75 mg vs 100 mg) was about 40% and the “calculated AUC (mean±SD)” value [1, 7] was 1140 ± 476 ng·h/mL. The “calculated Cmax (mean±SD)” value [1, 7] was 120 ± 74.7 ng/mL and 120 ng/mL, the Cmax ([1]; 100 mg) was 206 ng/mL and the “increase in Cmax” value ([1]; dose increase from 50 to 100 mg) was about 3 fold. It also gave a half-life ([2]; in vivo, 100 mg, vibegron alone) of 75 h, a half-life ([2]; in vivo, with diltiazem) of 75.4 h and a half-life ([2]; in vivo, with ketoconazole) of 80.2 h. It also gave an AUC [2, 8] of 1790 ng·h/mL, a Cmax [2, 8] of 163 ng/mL and an AUC [2, 9] of 2170 ng·h/mL. The Cmax [2, 9] was 167 ng/mL, the AUC [2, 10] was 2850 ng·h/mL and the Cmax [2, 10] was 251 ng/mL. The AUC [2, 11] was 1660 ng·h/mL, the Cmax [2, 11] was 158 ng/mL and the AUC [2, 12] was 1330 ng·h/mL. It also gave a Cmax [2, 12] of 99.8 ng/mL, an AUC [2, 13] of 1370 ng·h/mL and a Cmax [2, 13] of 113 ng/mL. The AUC [2, 14] was 3100 ng·h/mL, the Cmax [2, 14] was 304 ng/mL and the AUC [2, 15] was 2780 ng·h/mL. The Cmax [2, 15] was 269 ng/mL, the “effect of tolterodine ER 4 mg on pharmacokinetics of vibegron” value ([2]; in vivo) was “no effect” and the higher exposure ([2]; with a potent CYP3A/P-gp inhibitor) was about 2 fold. For the same molecule, the “GM AUC0-inf increase” value [2, 16] was 63%, the “GM Cmax increase” value [2, 16] was 68% and the tolerability ([3]; Phase 2b, 3 to 100 mg) was “generally well tolerated”. The “≥1 AE, subjects” value ([3]; first 12 weeks, dose group by column) was 107 n, the frequency of injuries ([3]; in vivo) was 0.9% and the “AUC0-inf reduction, fed vs fasted” value [4, 17] was 46%. For the same molecule, the “Cmax reduction, fed vs fasted” value [4, 17] was 67%, the “delay in Tmax, fed vs fasted” value [4, 17] was about 1 h and the “AUC0-inf reduction, fed vs fasted” value [4, 18] was 37%. The “Cmax reduction, fed vs fasted” value [4, 18] was 52%, the Ctrough ([4]; 150 mg multiple dose day 14, middle-aged females, fed) was 65.3 ± 7.87 ng/mL and the “AUC0-24 reduction with food vs fasted” value ([4]; 150 mg multiple dose, females, Day 14) was about 20%. For the same molecule, the “AUC0-24 with food compared to fasted” value [4, 19] was about 42%, the “Cmax with food compared to fasted” value [4, 19] was 59% and the Cmax [4, 20] was 185 ± 32.3 ng/mL. The Tmax [4, 20] was 6 h, the AUC(0-t) [4, 20] was 2540 ± 334 ng·h/mL and the AUC(0-inf) [4, 21] was 605 ± 222 ng·h/mL. It also gave a Cmax [4, 21] of 36.2 ± 33.3 ng/mL, an AUC(0-t) [4, 21] of 226 ± 112 ng·h/mL and an AUC(0-inf) [4, 22] of 316 ± 127 ng·h/mL. For the same molecule, the Cmax [4, 22] was 7.6 ± 2.27 ng/mL, the Tmax [4, 22] was 3 h and the AUC(0-t) [4, 22] was 90.7 ± 22.9 ng·h/mL. For the same molecule, the “binding to β1-AR” value (β1-AR) was “does not bind”, the “effect on QTc or blood pressure” value [5] was “no clinically meaningful effect” and the Ctrough ([6]; 25 mg QD) was 5.07 ± 0.711 ng/mL. The Ctrough ([6]; 50 mg QD) was 15.2 ± 5.07 ng/mL, the Ctrough ([6]; 50 mg QD, Japanese) was 16.5 ± 6.05 ng/mL and the Ctrough ([6]; 100 mg QD) was 31.9 ± 11.5 ng/mL. The “steady state Cmax, elderly vs young males” value ([6]; 100 mg QD) was about 1.3 fold, the Ctrough ([6]; 100 mg QD, elderly male and female) was 54.2 ± 15.3 ng/mL and the “fe0-24 hr, ss” value ([6]; 100 mg, elderly) was about 17%. The Cmax ([6]; 150 mg QD, middle-aged female, fasted) was 346 ± 139 ng/mL, the “fe0-24 hr, ss” value ([6]; 100 and 150 mg, young males) was about 14% and the “steady state exposure (AUC0-24) higher, elderly Japanese vs non-Japanese” value ([6]; Day 14) was 35%. For the same molecule, the AUC(0-t) ([6]; both sexes, human, plasma, oral, 100 mg, 100 mg QD, elderly Japanese) was 2920 ± 693 ng·h/mL, the half-life ([6]; both sexes, human, plasma, oral, 100 mg, 100 mg QD, elderly Japanese, read-out: t1/2 (converted)) was 75.1 ± 3.9 h and the AUC(0-t) ([6]; both sexes, human, plasma, oral, 100 mg, 100 mg QD, elderly male and female) was 2230 ± 671 ng·h/mL. It also gave a Cmax ([6]; both sexes, human, plasma, oral, 100 mg, 100 mg QD, elderly male and female, read-out: Cmax) of 224 ± 92 ng/mL.
